Assay results published in patent US8937069B2, “Substituted pyrrolo[2,3-B]pyrazine compounds and their use” (Novartis AG, priority 2012, dated 2015).

Biological target: T1, IP receptor (Homo sapiens, UniProt P43119)
T1 construct: expressed in transfected cells; host or cells: CHO cells stably expressing the IP receptor (CHO-IP)
Test: cAMP accumulation in CHO cells stably expressing the IP receptor (CHO-IP), PerkinElmer AlphaScreen assay
Type: cell-based
Settings: agonist activity, 1 hour at room temperature, 4-parameter logistic fit
Description: Activity of compounds at the IP receptor (IP receptor) is assessed by measuring cAMP accumulation in CHO cells stably expressing the IP receptor (CHO-IP) using the PerkinElmer AlphaScreen assay. This technology measures the endogenous production of cAMP, in a non-radioactive luminescence proximity homogenous assay. A biological reaction occurs between streptavidin coated donor beads, biotinylated cAMP and anti-cAMP acceptor beads, bringing the donor and acceptor beads close enough together so that upon excitation a fluorescence signal is produced. On production of endogenous cAMP, competition between the biotinylated cAMP and cellular-derived cAMP causes a reduction in the fluorescent signal. The reduction in signal is proportional to the amount of cAMP being produced, thus it is possible to quantify the amount of cAMP being produced on stimulation with agonist.
Test and reference compounds are prepared at 100×[final] in 100% DMSO, and diluted 1:3 using a Biomek Fx (Beckman Coulter). This is followed by an intermediate dilution to give 5×[final] in assay buffer (HBSS containing 5 mM HEPES, 0.1% (w/v) BSA). 5 μL of 5×[final] test compounds, reference compounds and buffer/DMSO control are then transferred to a 384-well white OptiPlate, containing 20 μL CHO-IP cell suspension (15,000 cells/well, prepared from frozen), and plate is incubated at room temperature for 1 hour. A cAMP standard curve is constructed for each experiment (concentration range of 10000 nM to 0.001 nM, in assay buffer) and 25 μL of each concentration added to the last two columns of the assay plate. The incubation is terminated by the addition of lysis buffer (dH2O; 0.3% (v v^−1) Tween-20) containing 20 units mL^−1 streptavidin coated donor beads and biotinylated cAMP (pre-incubated for 30 minutes) and 20 units mL^−1 anti-cAMP acceptor beads, which are added to the lysis buffer just before addition to the assay plate. The assay plate is then incubated at room temperature in the dark, for 60 minutes with gentle shaking, and read on the Envision plate reader (Perkin Elmer).
The raw data of the reference compounds, test compounds and controls are converted into cAMP concentrations, using the cAMP standard curve, in GraphPadPrism (GraphPad Software Inc). EC50 as well as maximal values of the agonist curves are determined using a 4-parameter logistic equation. The % maximum response values of all test compounds are determined using the top of the treprostinil concentration-response curve.

T1 sequence (P43119 whole entry): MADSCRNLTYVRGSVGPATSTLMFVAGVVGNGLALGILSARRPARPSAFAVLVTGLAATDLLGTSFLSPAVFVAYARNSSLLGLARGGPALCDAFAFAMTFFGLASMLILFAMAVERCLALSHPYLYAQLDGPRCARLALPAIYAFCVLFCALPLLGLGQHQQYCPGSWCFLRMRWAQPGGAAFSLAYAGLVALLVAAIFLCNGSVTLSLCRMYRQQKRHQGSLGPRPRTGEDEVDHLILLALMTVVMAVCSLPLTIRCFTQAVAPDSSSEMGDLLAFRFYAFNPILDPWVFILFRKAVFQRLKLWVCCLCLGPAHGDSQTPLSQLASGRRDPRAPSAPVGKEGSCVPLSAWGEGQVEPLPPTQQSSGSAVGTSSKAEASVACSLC

Cc1ccc(-c2nc3cc(C4CC4)n(CCCCCCC(=O)O)c3nc2-c2ccc(C)cc2)cc1 [Example 1, 7-(6-Cyclopropyl-2,3-di-p-tolyl-5H-pyrrolo[2,3-b]pyrazin-5-yl)heptanoic acid]
EC50: 1.7 nM

CCOC(=O)CCCCCCn1c(C2CC2)cc2nc(-c3ccc(C)cc3)c(-c3ccc(C)cc3)nc21 [Example 1.1, Ethyl 7-(6-cyclopropyl-2,3-di-p-tolyl-5H-pyrrolo[2,3-b]pyrazin-5-yl)heptanoate]
EC50: 57.5 nM

Cc1ccc(-c2nc3cc(C(C)C)n(CCCCCCC(=O)O)c3nc2-c2ccc(C)cc2)cc1 [Example 1.2, 7-(6-Isopropyl-2,3-di-p-tolyl-pyrrolo[2,3-b]pyrazin-5-yl)-heptanoic acid]
EC50: 1.8 nM

CCOC(=O)CCCCCCn1c(C(C)C)cc2nc(-c3ccc(C)cc3)c(-c3ccc(C)cc3)nc21 [Example 1.3, ethyl 7-(6-isopropyl-2,3-di-p-tolyl-5H-pyrrolo[2,3-b]pyrazin-5-yl)heptanoate]
EC50: 283 nM

CCOC(=O)CCCCCCn1ccc2nc(-c3ccc(C)cc3)c(-c3ccc(C)cc3)nc21 [Example 1.4, 7-(2,3-Di-p-tolyl-pyrrolo[2,3-b]pyrazin-5-yl)-heptanoic acid ethyl ester]
EC50: 18.3 nM

Cc1ccc(-c2nc3ccn(CCCCCCC(=O)O)c3nc2-c2ccc(C)cc2)cc1 [Example 1.5, 7-(2,3-Di-p-tolyl-pyrrolo[2,3-b]pyrazin-5-yl)-heptanoic acid]
EC50: 6.9 nM

Cc1ccc(-c2nc3c(C=O)cn(CCCCCCC(=O)O)c3nc2-c2ccc(C)cc2)cc1 [Example 2.1, 7-(7-Formyl-2,3di-p-tolyl-5H-pyrrolo[2,3-b]pyrazin-5-yl)heptanoic acid]
EC50: 7.1 nM

Cc1ccc(-c2nc3c(CO)cn(CCCCCCC(=O)O)c3nc2-c2ccc(C)cc2)cc1 [Example 2.2, 7-(7-(Hydroxymethyl)-2,3-di-p-tolyl-5H-pyrrolo[2,3-b]pyrazin-5-yl)heptanoic acid]
EC50: 17.4 nM

CCOC(=O)CCCCCCn1cc(CO)c2nc(-c3ccc(C)cc3)c(-c3ccc(C)cc3)nc21 [Example 3, Ethyl 7-(7-(hydroxymethyl)-2,3-di-p-tolyl-5H-pyrrolo[2,3-b]pyrazin-5-yl)heptanoate]
EC50: 325 nM

CCOC(=O)CCCCCCn1cc(CNC(C)C)c2nc(-c3ccc(C)cc3)c(-c3ccc(C)cc3)nc21 [Example 4.1, Ethyl 7-(7-((isopropylamino)methyl)-2,3-di-p-tolyl-5H-pyrrolo[2,3-b]pyrazin-5-yl)heptanoate]
EC50: 415 nM

Cc1ccc(-c2nc3c(CNC(C)C)cn(CCCCCCC(=O)O)c3nc2-c2ccc(C)cc2)cc1 [Example 4.2, 7-(7-((Isopropylamino)methyl)-2,3-di-p-tolyl-5H-pyrrolo[2,3-b]pyrazin-5-yl)heptanoic acid]
EC50: 79.7 nM

COc1cc2nc(-c3ccc(C)cc3)c(-c3ccc(C)cc3)nc2n1CCCCCCC(=O)O [Example 5, 7-(6-Methoxy-2,3-di-p-tolyl-pyrrolo[2,3-b]pyrazin-5-yl)-heptanoic acid]
EC50: 0.7 nM

CCOC(=O)CCCCCCN1CCc2nc(-c3ccc(C)cc3)c(-c3ccc(C)cc3)nc21 [Example 6, Ethyl 7-(2,3-di-p-tolyl-6,7-dihydro-5H-pyrrolo[2,3-b]pyrazin-5-yl)heptanoate]
EC50: 1.8 nM

Cc1ccc(-c2nc3cc(CCCCC(=O)O)[nH]c3nc2-c2ccc(C)cc2)cc1 [Example 7, 5-(2,3-Di-p-tolyl-5H-pyrrolo[2,3-b]pyrazin-6-yl)-pentanoic acid]
EC50: 320 nM

Cc1ccc(-c2nc3cc(CCCCC(=O)NCC(=O)O)[nH]c3nc2-c2ccc(C)cc2)cc1 [Example 8, 2-(5-(2,3-Di-p-tolyl-5H-pyrrolo[2,3-b]pyrazin-6-yl)pentanamido)acetic acid]
EC50: 1250 nM

Cc1ccc(-c2nc3cc(C)n(CCCCCCC(=O)O)c3nc2-c2ccc(C)cc2)cc1 [Example 9, 7-(6-Methyl-2,3-di-p-tolyl-5H-pyrrolo[2,3-b]pyrazin-5-yl)heptanoic acid]
EC50: 0.3 nM

O=C(O)CCCCCCn1c(C2CC2)cc2nc(-c3ccccc3)c(-c3ccccc3)nc21 [Example 10, 7-(6-Cyclopropyl-2,3-diphenyl-pyrrolo[2,3-b]pyrazin-5-yl)-heptanoic acid]
EC50: 0.5 nM

COc1ccc(-c2nc3cc(C4CC4)n(CCCCCCC(=O)O)c3nc2-c2ccc(C)cc2)cc1 [Example 10.1, 7-(6-cyclopropyl-2-(4-methoxy-phenyl)-3-(p-tolyl)-5H-pyrrolo[2,3-b]pyrazin-5-yl)heptanoic acid]
EC50: 2.4 nM

O=C(O)CCCCCCn1c(C2CC2)cc2nc(-c3ccc(Cl)cc3)c(-c3ccc(Cl)cc3)nc21 [Example 10.2, 7-(2,3-bis(4-chlorophenyl)-6-cyclopropyl-5H-pyrrolo[2,3-b]pyrazin-5-yl)heptanoic acid]
EC50: 5.6 nM

CCc1ccc(-c2nc3cc(C4CC4)n(CCCCCCC(=O)O)c3nc2-c2ccc(C)cc2)cc1 [Example 10.3, 7-(6-cyclopropyl-2-(4-ethylphenyl)-3-(p-tolyl)-5H-pyrrolo[2,3-b]pyrazin-5-yl)heptanoic acid]
EC50: 6.8 nM

Cc1cccc(-c2nc3cc(C4CC4)n(CCCCCCC(=O)O)c3nc2-c2cccc(C)c2)c1 [Example 10.4, 7-(6-cyclopropyl-2,3-di-m-tolyl-5H-pyrrolo[2,3-b]pyrazin-5-yl)heptanoic acid]
EC50: 60.6 nM

CCc1ccc(-c2nc3c(cc(C4CC4)n3CCCCCCC(=O)O)nc2-c2ccc(C)cc2)cc1 [Example 10.5, 7-(6-cyclopropyl-3-(4-ethylphenyl)-2-(p-tolyl)-5H-pyrrolo[2,3-b]pyrazin-5-yl)heptanoic acid]
EC50: 4.4 nM

COc1ccc(-c2nc3c(cc(C4CC4)n3CCCCCCC(=O)O)nc2-c2ccc(C)cc2)cc1 [Example 10.6, 7-(6-cyclopropyl-3-(4-methoxyphenyl)-2-(p-tolyl)-5H-pyrrolo[2,3-b]pyrazin-5-yl)heptanoic acid]
EC50: 6.1 nM

Cc1ccc(-c2nc3cc(C4CC4)n(CCCCCCC(=O)O)c3nc2-c2cccc(C)c2)cc1 [Example 10.7, 7-(6-cyclopropyl-3-(m-tolyl)-2-(p-tolyl)-5H-pyrrolo[2,3-b]pyrazin-5-yl)heptanoic acid]
EC50: 37.1 nM

Cc1ccc(-c2nc3c(cc(C4CC4)n3CCCCCCC(=O)O)nc2-c2cccc(C)c2)cc1 [Example 10.8, 7-(6-cyclopropyl-2-(m-tolyl)-3-(p-tolyl)-5H-pyrrolo[2,3-b]pyrazin-5-yl)heptanoic acid]
EC50: 2.5 nM

Cc1ccc(-c2nc3cc(CCO)n(CCCCCCC(=O)O)c3nc2-c2ccc(C)cc2)cc1 [Example 11, 7-(6-(2-Hydroxyethyl)-2,3-di-p-tolyl-5H-pyrrolo[2,3-b]pyrazin-5-yl)heptanoic acid]
EC50: 1.6 nM

Cc1ccc(-c2nc3cc(C4CC4)n(CCCCC(=O)O)c3nc2-c2ccc(C)cc2)cc1 [Example 12, 5-(6-Cyclopropyl-2,3-di-p-tolyl-5H-pyrrolo[2,3-b]pyrazin-5-yl)pentanoic acid]
EC50: 660 nM

Cc1ccc(-c2nc3cc(C4CC4)n(CCCCCC(=O)O)c3nc2-c2ccc(C)cc2)cc1 [Example 13, 6-(6-Cyclopropyl-2,3-di-p-tolyl-5H-pyrrolo[2,3-b]pyrazin-5-yl)hexanoic acid]
EC50: 2.4 nM

COCc1cn(CCCCCCC(=O)O)c2nc(-c3ccc(C)cc3)c(-c3ccc(C)cc3)nc12 [Example 14, 7-(7-(Methoxymethyl)-2,3-di-p-tolyl-5H-pyrrolo[2,3-b]pyrazin-5-yl)heptanoic acid]
EC50: 4.2 nM

Cc1ccc(-c2nc3c(nc2-c2ccc(C)cc2)N(CCCCCCC(=O)O)C(=O)C3)cc1 [Example 15, 7-(6-oxo-2,3-dip-tolyl-6,7-dihydro-5H-pyrrolo[2,3-b]pyrazin-5-yl)heptanoic acid]
EC50: 3.6 nM

Cc1ccc(-c2nc3cc(C(F)(F)F)n(CCCCCCC(=O)O)c3nc2-c2ccc(C)cc2)cc1 [Example 16, 7-(2,3-Dip-tolyl-6-(trifluoromethyl)-5H-pyrrolo[2,3-b]pyrazin-5-yl)heptanoic acid]
EC50: 3 nM

CCc1c(CC)n(CCCCCCC(=O)O)c2nc(-c3ccc(C)cc3)c(-c3ccc(C)cc3)nc12 [Example 17, 7-(6,7-Diethyl-2,3-di-p-tolyl-5H-pyrrolo[2,3-b]pyrazin-5-yl)heptanoic acid]
EC50: 0.5 nM
